Source: patent US20250122192A1, “5-PYRIMIDINECARBOXAMIDE DERIVATIVES AND METHODS OF USING THE SAME” (Rgenta Therapeutics, Inc., priority 2021, published 2025)
Where a name gives a salt, the structure may show the parent alone. Read-outs that look alike come from different tables or passages of the source.

Test system: PMS1
Assay: Mini-gene reporter assay-PMS1
Format: cell-based
Settings: Homo sapiens; for IC50: HEK293, PMS1 mini-gene firefly luciferase reporter transiently transfected into HEK293 cells, read-out: PMS1 IC50
Procedure, shortened: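 HEK293 cells transiently transfected with a mini-gene construct: skipped exon with flanking introns and exons fused to firefly luciferase in pcDNA3.1, so exon inclusion raises luciferase signal. Compounds tested in duplicate dilutions, luminescence read after incubation, EC50 fitted by Levenberg-Marquardt.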

[1] = at 5 μM, PMS1 mini-gene firefly luciferase reporter in HEK293 cells, read-out: PMS1% Effect at 5 μM

Row | IC50 [nM] | SMILES | activation at 5 µM [1] [%] | further results
1 | 1000 to 3000 | CCOc1nc(N2CCNCC2)ncc1C(=O)Nc1cc2cn(C)nc2c(F)c1C [Compound 307, 4-ethoxy-N-(7-fluoro-2,6-dimethyl-2H-indazol-5-yl)-2-(piperazin-1-yl)pyrimidine-5-carboxamide hydrochloride] |  | 
2 |  | CCOc1nc(N2CCNCC2)ncc1C(=O)Nc1cn2cc(C)nc2cc1F [Compound 308, 4-ethoxy-N-(7-fluoro-2-methylimidazo[1,2-a]pyridin-6-yl)-2-(piperazin-1-yl)pyrimidine-5-carboxamide formate] |  | activation at 5 µM (HEK293, read-out: PMS1% Effect at 5 μM): > 75%
3 |  | CCOc1nc(N2CC[C@@H](NC)C2)ncc1C(=O)Nc1ccn2nc(C)cc2c1 [Compound 313, 4-ethoxy-2-[(3R)-3-(methylamino)pyrrolidin-1-yl]-N-2-methylpyrazolo[1,5-a]-pyridin-5-ylpyrimidine-5-carboxamide] | > 75 | 
4 |  | CCOc1nc(N2CC[C@H](NC)C2)ncc1C(=O)Nc1ccn2nc(C)cc2c1 [Compound 314, 4-ethoxy-2-[(3S)-3-(methylamino)pyrrolidin-1-yl]-N-2-methylpyrazolo[1,5-a]-pyridin-5-ylpyrimidine-5-carboxamide] | > 75 | 
5 |  | CCOc1nc(C2=CCNC2)ncc1C(=O)Nc1cc(F)c2nc(C)cn2c1 [Compound 315, 2-(2,5-dihydro-1H-pyrrol-3-yl)-4-ethoxy-N-8-fluoro-2-methylimidazo[1,2-a]-pyridin-6-ylpyrimidine-5-carboxamide] | > 75 | 
6 |  | CCOc1nc(C2CCNC2)ncc1C(=O)Nc1cc(F)c2nc(C)cn2c1 (stereo not shown) [Compound 316, 4-ethoxy-N-8-fluoro-2-methylimidazo[1,2-a]pyridin-6-yl-2-(pyrrolidin-3-yl)-pyrimidine-5-carboxamide] | 50 to 75 | 
7 | > 3000 | CCOc1nc(N2CC[C@@H](NC)C2)ncc1C(=O)Nc1ccc2nc(C)cn2n1 [Compound 317] |  | 
8 | > 3000 | CCOc1nc(N2CC[C@H](NC)C2)ncc1C(=O)Nc1ccc2nc(C)cn2n1 [Compound 318] |  | 
9 | > 3000 | CCOc1nc(N2CCC(NC)C2)ncc1C(=O)Nc1ccc2nc(C)cn2n1 (stereo not shown) [Compound 319] |  | 

Row | SMILES | IC50 [nM] | activation at 5 µM [1] [%] | further results
10 | CC(C)COc1nc(N2CCNCC2)ncc1C(=O)Nc1cc(F)c2nn(C)cc2c1 [Compound 306, N-(7-fluoro-2-methyl-2H-indazol-5-yl)-4-isobutoxy-2-(piperazin-1-yl)pyrimidine-5-carboxamide formate] | 1000 to 3000 |  | 
